# Laboratory results published in US20080113073A1, “Hydroxydeoxybenzoins And The Use Thereof to Mask A Bitter Taste” (SYMRISE GMBH & CO. KG, priority 2005, published 2008).
# Assays:
# [1] = system: bitter impression of a caffeine solution; assay: Bitter reduction of a caffeine solution, rated by a group of experts (0 not bitter to 10 extremely bitter); format: in vivo; settings: for Bitter impression (1-10) with: 500 ppm caffeine plus 100 ppm substance, 95% confidence intervals given as error; for % reduction in the bitter impression: 500 ppm caffeine, 100 ppm substance, calculated from average ratings without/with substance
# Experimental: In order to quantify the reduction in the bitter impression, the bitterness of a caffeine solution comprising 500 ppm and of a sample comprising 500 ppm of caffeine and a variable amount of the compound of the example was determined by a group of experts (rating 0 [not bitter] to 10 [extremely bitter]). The evaluation was carried out by calculating the reduction (in %) in the bitter impression from the average values of the assessments of the caffeine solution or the solutions containing caffeine and compound of the example. 2,4-Dihydroxybenzoic acid (2,4-DHB) was used as comparison in accordance with U.S. Pat. No. 5,643,941.
# taste of caffeine = settings: in vivo; cited from earlier work
# [2] = system: sweetness impression of sugared low-fat yoghurt; assay: Sweetness enhancement in low-fat yoghurt with 5% sugar, coded tasting by 16 testers (scale 0 to 10); format: in vivo
# Source text: 5% sugar was stirred into a commercially available natural yoghurt (without additives) having a fat content of 0.1% (sample 1). 200 ppm of compound 2 (Example 2), which had previously been dissolved in a minimal amount of ethanol, were additionally incorporated into a sample 2. Samples 1 and 2 were presented in coded form, in a different but predetermined order, to 16 testers for tasting. The testers had to note the sweetness impression on a scale of from 0 (not present) to 10 (extreme sweetness). In addition, the testers were to note other taste impressions.
# [3] = system: sweet impression of a sucrose solution; assay: Enhancement of the sweet impression of a sucrose solution, rated by a group of experts (0 not sweet to 10 extremely sweet); format: in vivo
# Experimental: In order to quantify the enhancement of the sweet impression, the sweetness of a sucrose solution comprising 5% and of a sample comprising 5% sucrose and an amount of compound 2 was determined by a group of experts (rating 0 [not sweet] to 10 [extremely sweet]). The evaluation was carried out by calculating the […] (in %) in the sweet impression from the average values of the assessments of the sucrose solution or of the solution comprising sucrose and compound 2.
# taste = settings: studied within the context of various sweeteners; cited from earlier work
structure (smiles),measurement,setting,value
"COc1cc(CC(=O)c2c(O)cc(O)cc2O)ccc1O [Compound 1, 2-(4-Hydroxy-3-methoxyphenyl)-1-(2,4,6-trihydroxyphenyl)-ethanone]",Bitter impression (1-10) with,[1],3.8 ± 0.9
same,% reduction in the bitter impression,[1],23%
"O=C([O-])c1ccc(O)cc1O.[K+] [2,4-Dihydroxybenzoic acid potassium salt]",ability to suppress the taste of caffeine,taste of caffeine,not able to suppress the taste of caffeine
"COc1cc(CC(=O)c2ccc(O)cc2O)ccc1O [Compound 2, 1-(2,4-Dihydroxyphenyl)-2-(4-hydroxy-3-methoxyphenyl)-ethanone]",number of testers who found the sample with compound sweeter,"[2]; of 16 testers, 4 found sample 1 sweeter, 2 found both equally sweet",10
same,further taste impression noted,[2]; sample 2 (200 ppm compound),sticky
same,preference of testers,[2]; sample 2 (200 ppm compound) versus sample 1,preferred to sample 1 by the majority of testers
same,enhancement of the sweetness impression,[2]; sample 2 (200 ppm compound) versus sample 1 in yoghurt with 5% sugar,18%
same,average sweetness impression rating (0 to 10),"[2]; sample 2: yoghurt 0.1% fat, 5% sugar, 200 ppm compound, sample 1 without compound rated 4.1",4.9
same,Bitter impression (1-10) with,[1],4.3 ± 0.8
same,% reduction in the bitter impression,[1],10%
same,Sweet impresssion (1-10) with,"[3]; 5% sucrose plus 100 ppm substance, standard deviations given as error",5.9 ± 1.5
same,% enhancement of the sweet impression,"[3]; 5% sucrose, 100 ppm substance, calculated from average ratings",18%
"O=C(O)c1ccc(O)cc1O [2,4-DHB, 2,4-Dihydroxybenzoic acid, reference compound]",Bitter impression (1-10) with,[1],5.0 ± 1.0
same,% reduction in the bitter impression,[1],3%
"COc1ccc(CC(=O)c2c(O)cc(O)cc2O)cc1O [2-(3-hydroxy-4-methoxyphenyl)-1-(2,4,6-trihydroxyphenyl)ethanone]",taste of the compound itself,taste,tasteless
